ChEMBL document CHEMBL6109120, “Discovery of Novel SIK2/3 Inhibitors for the Potential Treatment of MEF2C+ Acute Myeloid Leukemia (AML)” (J Med Chem, 2025)

Columns and labels:
[1] = target: T1, Serine/threonine-protein kinase ULK2 (Homo sapiens, UniProt Q8IYT8)
T1 sequence (Q8IYT8 whole entry): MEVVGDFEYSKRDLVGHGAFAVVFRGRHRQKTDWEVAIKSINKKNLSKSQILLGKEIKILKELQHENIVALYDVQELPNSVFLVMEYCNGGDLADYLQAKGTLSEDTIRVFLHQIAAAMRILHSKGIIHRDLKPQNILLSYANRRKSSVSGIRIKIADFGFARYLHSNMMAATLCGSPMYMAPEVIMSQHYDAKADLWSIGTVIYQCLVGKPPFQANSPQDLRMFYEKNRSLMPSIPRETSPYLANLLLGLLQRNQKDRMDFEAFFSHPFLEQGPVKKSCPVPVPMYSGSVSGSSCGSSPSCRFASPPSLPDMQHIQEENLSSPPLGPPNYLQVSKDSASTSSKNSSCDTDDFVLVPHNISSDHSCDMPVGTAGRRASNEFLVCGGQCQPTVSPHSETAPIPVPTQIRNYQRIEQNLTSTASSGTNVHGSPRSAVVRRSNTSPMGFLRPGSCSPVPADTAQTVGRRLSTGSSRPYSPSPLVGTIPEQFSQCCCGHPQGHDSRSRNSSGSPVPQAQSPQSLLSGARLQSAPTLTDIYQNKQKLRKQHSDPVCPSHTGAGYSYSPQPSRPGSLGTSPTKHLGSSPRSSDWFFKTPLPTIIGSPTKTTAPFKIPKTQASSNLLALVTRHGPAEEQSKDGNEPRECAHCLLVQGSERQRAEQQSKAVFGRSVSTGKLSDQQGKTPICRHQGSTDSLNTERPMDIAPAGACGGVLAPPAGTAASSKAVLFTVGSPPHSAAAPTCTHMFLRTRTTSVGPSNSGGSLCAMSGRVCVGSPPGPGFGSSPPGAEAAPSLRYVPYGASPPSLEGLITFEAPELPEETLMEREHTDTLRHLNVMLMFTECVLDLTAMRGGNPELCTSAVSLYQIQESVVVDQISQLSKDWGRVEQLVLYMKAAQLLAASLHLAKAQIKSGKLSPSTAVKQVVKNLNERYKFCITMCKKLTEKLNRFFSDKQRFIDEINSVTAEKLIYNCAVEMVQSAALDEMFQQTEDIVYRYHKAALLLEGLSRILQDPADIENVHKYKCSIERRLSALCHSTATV
Description: Binding affinity to human ULK2 by KINOMEscan assay

[2] = target: T2, Receptor-type tyrosine-protein kinase FLT3 (Homo sapiens, UniProt P36888); assay: Binding affinity to human FLT3 by KINOMEscan assay
T2 sequence (P36888 whole entry): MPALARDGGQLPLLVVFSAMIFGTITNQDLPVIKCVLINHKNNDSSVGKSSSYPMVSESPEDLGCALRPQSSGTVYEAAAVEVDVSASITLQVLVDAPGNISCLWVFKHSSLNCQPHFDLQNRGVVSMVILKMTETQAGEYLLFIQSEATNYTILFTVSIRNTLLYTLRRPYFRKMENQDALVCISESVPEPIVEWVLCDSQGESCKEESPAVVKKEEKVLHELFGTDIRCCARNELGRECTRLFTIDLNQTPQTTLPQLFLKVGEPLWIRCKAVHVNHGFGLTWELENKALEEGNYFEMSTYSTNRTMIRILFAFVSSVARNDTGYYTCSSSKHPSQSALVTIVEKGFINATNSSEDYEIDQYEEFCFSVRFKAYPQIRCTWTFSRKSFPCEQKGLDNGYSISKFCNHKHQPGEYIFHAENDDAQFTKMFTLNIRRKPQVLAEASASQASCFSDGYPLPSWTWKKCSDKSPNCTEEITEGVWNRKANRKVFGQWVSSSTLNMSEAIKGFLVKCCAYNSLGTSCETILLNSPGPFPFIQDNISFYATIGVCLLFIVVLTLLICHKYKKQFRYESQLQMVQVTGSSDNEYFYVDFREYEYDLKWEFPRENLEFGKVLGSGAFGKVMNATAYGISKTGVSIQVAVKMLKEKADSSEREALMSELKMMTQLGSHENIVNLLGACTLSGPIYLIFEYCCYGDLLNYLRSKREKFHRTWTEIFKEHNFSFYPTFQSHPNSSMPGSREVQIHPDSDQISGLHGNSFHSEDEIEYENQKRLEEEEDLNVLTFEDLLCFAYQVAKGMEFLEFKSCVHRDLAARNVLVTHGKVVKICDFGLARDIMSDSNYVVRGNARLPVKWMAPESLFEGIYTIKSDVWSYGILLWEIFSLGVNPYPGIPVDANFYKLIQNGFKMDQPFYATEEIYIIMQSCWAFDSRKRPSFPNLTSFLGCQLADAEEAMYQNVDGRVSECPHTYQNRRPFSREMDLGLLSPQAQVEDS

[3] = target: T3, Serine/threonine-protein kinase ULK1 (Homo sapiens, UniProt O75385)
T3 sequence (O75385 whole entry): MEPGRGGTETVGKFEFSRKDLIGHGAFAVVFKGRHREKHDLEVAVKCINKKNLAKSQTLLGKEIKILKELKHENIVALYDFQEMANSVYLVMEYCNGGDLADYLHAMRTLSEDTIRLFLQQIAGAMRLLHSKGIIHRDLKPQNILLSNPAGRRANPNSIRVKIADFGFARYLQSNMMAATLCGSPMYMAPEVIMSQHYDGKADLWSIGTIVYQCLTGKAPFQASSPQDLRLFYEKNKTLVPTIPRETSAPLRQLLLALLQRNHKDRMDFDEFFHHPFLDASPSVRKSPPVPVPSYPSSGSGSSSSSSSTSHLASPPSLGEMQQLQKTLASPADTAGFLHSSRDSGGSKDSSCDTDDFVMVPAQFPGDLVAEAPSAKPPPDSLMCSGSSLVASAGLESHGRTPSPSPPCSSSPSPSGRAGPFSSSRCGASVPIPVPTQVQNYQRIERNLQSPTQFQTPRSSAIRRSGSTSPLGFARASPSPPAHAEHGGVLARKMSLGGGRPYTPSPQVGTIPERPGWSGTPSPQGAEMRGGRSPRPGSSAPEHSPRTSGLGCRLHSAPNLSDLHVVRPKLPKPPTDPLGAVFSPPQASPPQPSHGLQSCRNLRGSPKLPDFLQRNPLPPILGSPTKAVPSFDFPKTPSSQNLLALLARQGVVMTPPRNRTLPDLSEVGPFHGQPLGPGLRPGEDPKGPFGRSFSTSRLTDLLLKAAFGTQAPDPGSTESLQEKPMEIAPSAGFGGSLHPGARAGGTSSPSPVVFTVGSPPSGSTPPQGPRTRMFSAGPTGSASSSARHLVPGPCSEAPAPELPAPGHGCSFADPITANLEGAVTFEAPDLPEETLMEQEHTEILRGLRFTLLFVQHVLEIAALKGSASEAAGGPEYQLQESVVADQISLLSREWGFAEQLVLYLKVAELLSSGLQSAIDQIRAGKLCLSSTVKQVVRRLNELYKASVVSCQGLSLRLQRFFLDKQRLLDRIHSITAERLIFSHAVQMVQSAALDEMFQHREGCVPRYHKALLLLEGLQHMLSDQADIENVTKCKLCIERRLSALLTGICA
Description: Binding affinity to human ULK1 by KINOMEscan assay

- IC50 [1]: 2080 nM
- IC50 [2]: 85 nM
- IC50 [3]: 586 nM
SMILES: COc1nc(-c2cc(-c3cnn(C)c3)cnc2N)cc2c1C(=O)N(CC(F)(F)F)CC2
